From article PMC10786692 (The Journal of Clinical Investigation, 2024)
Where “and” joins values, the source holds several entries; their conditions need not be identical. Identical values can stand only once. Like-named read-outs stand apart in the source and are kept apart here.

Legend:
Format in all cases: in vivo, human
[1] = Plasma pharmacokinetics of ceralasertib (HPLC-MS/MS, NCA); conditions: for half-life: read-out: Mean terminal elimination half-life
Experimental: Intensive PK sampling in part A occurred after a single dose from predose up to 24 to 72 hours and again at day 15 and day 29 of continuous dosing. Participants fasted for 1 hour before and 2 hours after dosing for PK assessment. In part B, sampling coincided with day 15 PD assessments. Full details are given in Supplemental Methods. […]
Evaluated PK […]
maximum observed plasma concentration (Cmax), time to Cmax (tmax), and apparent terminal half-life (t1/2) calculated as ln/lambda-z where lambda-z (lz) is the apparent terminal phase rate- […]
constant estimated by linear regression of logarithmically-transformed concentration-versus-time data. A minimum of three data points were used in calculating lz as per AstraZeneca standard operating procedures. Data from multiple dosing were used to derive accumulation ratios based on Cmax (Race Cmax) and AUC(0-8) (Rac AUC0-8) defined as the ratio between Cmax or AUC(0-8) after multiple dose and Cmax and AUC(0-8) at day 1. All PK parameters for […]
WinNonLin v8.3 software or higher where the ‘linear up/log down trapezoidal rule’ for AUC was […]
applied. […]

[2] = system: peripheral blood immune cells; assay: Flow cytometry immune profiling of peripheral blood
Experimental: DNA-Seq of tumor and matched buffy coats was either by whole-exome sequencing or a custom-designed panel targeting all exons of genes of interest for 173 genes, including potential markers of sensitivity to ATRi. ACK-lysed whole blood or PBMCs were stained for flow cytometry using 8 multicolor panels. Plasma cytokines were assessed using the Bio-Plex Pro 27-Plex Panel (Bio-Rad). See Supplemental Methods for full information. […]
Peripheral blood was drawn into 8 mL EDTA tubes (Vacutainer, BD) and analyzed within 24
hours. ACK-lysed whole blood (for myeloid panel) or PBMC from density gradient centrifugation
(for lymphocyte panel) were used. Samples were surface-stained with antibodies for 30 mins at
4 OC. Samples were analyzed on a LSR Fortessa (BD Biosciences). FACS analyses were
CD56 PE-Dazzle 594 Biolegend
CD62L PerCp Cy5.5 Biolegend
NKp30 PerCp Cy5.5 Biolegend
TIGIT PerCp Cy5.5 eBioscience
CD45RO Pacific Blue Biolegend
CTLA-4 PE-Dazzle 594 Biolegend
CD57 PerCp Cy5.5 Biolegend
CD38 PE-Dazzle 594 Biolegend
CD11b ICRF44 PE Biolegend
HLA-DR L243 PerCP Cy5.5 Biolegend
CD16 3G8 APC-C7 Biolegend

tumor biopsies = assay: RNA-Seq differential gene expression / GSEA of paired tumor biopsies; conditions: after 2 weeks of ceralasertib
Experimental: Eight paired tumor biopsies were analyzed from 3 patients with PR, 4 with SD, and 1 NE, treated at various dose levels. Additional baseline samples were also available for 1 PR and 1 SD. When all samples were considered together, there were few differences in differential gene expression between baseline and on-treatment biopsies (Figure 5A). However, when responders (PR) were compared with nonresponders (SD), there were marked differences in both baseline and on-treatment gene expression (Figure 5, B–E) with clustering of a number of differentially expressed genes according to response (Supplemental Figure 8). […]
Formalin fixed paraffin-embedded tumor samples were used. […] H-score was calculated using HALO image analysis (Indica Labs). […] Nuclear ATM (Abcam 32420) IHC staining was carried out on the Ventana autostainer, using DAB detection and assessed by H-score, but samples were only deemed acceptable if lymphocyte staining (internal control) was at least 2+ (moderate) intensity. Cyclin E1 (Invitrogen HE12) staining was carried out on the Ventana autostainer, using DAB detection and the H-score was quantified using HALO image analysis (Indica Labs). Ki67 (Mib-1, Dako M7240) was scored by percent nuclear positivity using a global unweighted method, scoring 4 areas of 100 cells. […] Quantification of tumor-infiltrating lymphocytes was done using a semi-automated method in QuPath (53). […]

For `C[C@@H]1COCCN1c1cc(C2([S@](C)(=N)=O)CC2)nc(-c2cc[nH]c3nccc2-3)n1` [ceralasertib], the Plasma concentration, individual patients ([1]; 20 mg day 0, 24 h) was 142 ng/mL and 138 ng/mL and 380 ng/mL, the Plasma concentration, individual patients ([1]; 20 mg day 1, 24 h) was 632 ng/mL and 586 ng/mL and 929 ng/mL and the “Plasma concentration, individual patients” value (from here on “Plasma concentration”) ([1]; 40 mg day 0, 0 h, in ng/mL) was 0. The Plasma concentration, individual patients ([1]; 40 mg day 0, 0.5 h) was 760 ng/mL and 1280 ng/mL and 301 ng/mL, the Plasma concentration, individual patients ([1]; 40 mg day 0, 1 h) was 1150 ng/mL and 2230 ng/mL and 1660 ng/mL and the Plasma concentration, individual patients ([1]; 40 mg day 0, 2 h) was 1660 ng/mL and 1430 ng/mL. For the same compound, the Plasma concentration, individual patients ([1]; 40 mg day 0, 4 h) was 1330 ng/mL and 1170 ng/mL, the Plasma concentration, individual patients ([1]; 40 mg day 0, 8 h) was 894 ng/mL and 668 ng/mL and the Plasma concentration, individual patients ([1]; 40 mg day 0, 24 h) was 226 ng/mL and 224 ng/mL. The Plasma concentration, individual patients ([1]; 40 mg day 1, 0.5 h) was 1850 ng/mL and 634 ng/mL and 1990 ng/mL, the Plasma concentration, individual patients ([1]; 40 mg day 1, 1 h) was 1440 ng/mL and 1570 ng/mL and the Plasma concentration, individual patients ([1]; 40 mg day 1, 2 h) was 2060 ng/mL and 1610 ng/mL. The Plasma concentration, individual patients ([1]; 40 mg day 1, 4 h) was 1500 ng/mL and 1300 ng/mL, the Plasma concentration, individual patients ([1]; 40 mg day 1, 8 h) was 1190 ng/mL and 822 ng/mL and the Plasma concentration, individual patients ([1]; 40 mg day 1, 24 h) was 1220 ng/mL and 677 ng/mL. The “Plasma concentration” value ([1]; 80 mg day 0, 0 h, in ng/mL) was 0, the Plasma concentration, individual patients ([1]; 80 mg day 0, 0.5 h) was 0 ng/mL and the Plasma concentration, individual patients ([1]; 80 mg day 0, 2 h) was 2900 ng/mL and 1130 ng/mL and 2000 ng/mL and 4130 ng/mL and 1950 ng/mL and 3230 ng/mL. For the same compound, the Plasma concentration, individual patients ([1]; 80 mg day 0, 4 h) was 2010 ng/mL and 3030 ng/mL and 1520 ng/mL, the “Plasma concentration” value ([1]; 80 mg day 0, […], in ng/mL) was 0 and the Plasma concentration, individual patients ([1]; 80 mg day 1, 0.5 h) was 2360 ng/mL and 757 ng/mL and 378 ng/mL and 2950 ng/mL and 1020 ng/mL and 1250 ng/mL. For the same compound, the Plasma concentration, individual patients ([1]; 80 mg day 1, 1 h) was 4420 ng/mL and 1340 ng/mL and 816 ng/mL and 2960 ng/mL and 939 ng/mL and 2250 ng/mL, the Plasma concentration, individual patients ([1]; 80 mg day 1, 2 h) was 3650 ng/mL and 1700 ng/mL and 1500 ng/mL and 2460 ng/mL and 1310 ng/mL and 2040 ng/mL and the Plasma concentration, individual patients ([1]; 80 mg day 1, 4 h) was 3230 ng/mL and 1160 ng/mL and 3200 ng/mL. The Oral absorption ([1]; all doses, single and multiple dose) was “rapidly orally absorbed”, the concentration at 0 h ([1]; human, plasma, oral, 20 mg, 20 mg day 0, 0 h, read-out: Plasma concentration, individual patients) was 0 ng/mL and the concentration at 4 h ([1]; human, plasma, oral, 20 mg, 20 mg day 0, 4 h, read-out: Plasma concentration, individual patients) was 885 ng/mL. For the same compound, the concentration at 8 h ([1]; human, plasma, oral, 20 mg, 20 mg day 0, 8 h, read-out: Plasma concentration, individual patients) was 562 ng/mL, the concentration at 2 h ([1]; human, plasma, oral, 20 mg, 20 mg day 1, 2 h, read-out: Plasma concentration, individual patients) was 757 ng/mL and the concentration at 4 h ([1]; human, plasma, oral, 20 mg, 20 mg day 1, 4 h, read-out: Plasma concentration, individual patients) was 1020 ng/mL. It also gave a concentration at 8 h ([1]; human, plasma, oral, 20 mg, 20 mg day 1, 8 h, read-out: Plasma concentration, individual patients) of 618 ng/mL, a concentration at 2 h ([1]; human, plasma, oral, 40 mg, 40 mg day 0, 2 h, read-out: Plasma concentration, individual patients) of 2220 ng/mL and a concentration at 4 h ([1]; human, plasma, oral, 40 mg, 40 mg day 0, 4 h, read-out: Plasma concentration, individual patients) of 1450 ng/mL. For the same compound, the concentration at 8 h ([1]; human, plasma, oral, 40 mg, 40 mg day 0, 8 h, read-out: Plasma concentration, individual patients) was 1010 ng/mL, the concentration at 24 h ([1]; human, plasma, oral, 40 mg, 40 mg day 0, 24 h, read-out: Plasma concentration, individual patients) was 203 ng/mL and the concentration at 1 h ([1]; human, plasma, oral, 40 mg, 40 mg day 1, 1 h, read-out: Plasma concentration, individual patients) was 2490 ng/mL. It also gave a concentration at 2 h ([1]; human, plasma, oral, 40 mg, 40 mg day 1, 2 h, read-out: Plasma concentration, individual patients) of 2290 ng/mL, a concentration at 4 h ([1]; human, plasma, oral, 40 mg, 40 mg day 1, 4 h, read-out: Plasma concentration, individual patients) of 1640 ng/mL and a concentration at 8 h ([1]; human, plasma, oral, 40 mg, 40 mg day 1, 8 h, read-out: Plasma concentration, individual patients) of 996 ng/mL. It also gave a concentration at 24 h ([1]; human, plasma, oral, 40 mg, 40 mg day 1, 24 h, read-out: Plasma concentration, individual patients) of 1150 ng/mL, a concentration at 0 h ([1]; human, plasma, oral, 80 mg, 80 mg day 0, 0 h, read-out: Plasma concentration, individual patients) of 0 ng/mL and a concentration at […] ([1]; human, plasma, oral, 80 mg, 80 mg day 0, […], read-out: Plasma concentration, individual patients) of 0 ng/mL. For the same compound, the concentration at 0 h ([1]; human, plasma, oral, 160 mg, 160 mg day 0, 0 h, read-out: Plasma concentration, individual patients) was 0 ng/mL, the concentration at 0 h ([1]; human, plasma, oral, 240 mg, 240 mg day 0, 0 h, read-out: Plasma concentration, individual patients) was 0 ng/mL and the concentration at 8 h ([1]; human, plasma, oral, 240 mg, 240 mg day 0, 8 h, read-out: Plasma concentration, individual patients) was 4640 ng/mL. The concentration at 12 h ([1]; human, plasma, oral, 240 mg, 240 mg day 0, read-out: Plasma concentration, individual patients) was 4200 ng/mL, the concentration at 0 h ([1]; human, plasma, oral, 240 mg, 240 mg day 15, 0 h, read-out: Plasma concentration, individual patients) was 8530 ng/mL and the concentration at 0.5 h ([1]; human, plasma, oral, 240 mg, 240 mg day 15, 0.5 h, read-out: Plasma concentration, individual patients) was 13500 ng/mL. The concentration at 1 h ([1]; human, plasma, oral, 240 mg, 240 mg day 15, 1 h, read-out: Plasma concentration, individual patients) was 17000 ng/mL, the concentration at 4 h ([1]; human, plasma, oral, 240 mg, 240 mg day 15, 4 h, read-out: Plasma concentration, individual patients) was 13500 ng/mL and the concentration at 8 h ([1]; human, plasma, oral, 240 mg, 240 mg day 15, 8 h, read-out: Plasma concentration, individual patients) was 10200 ng/mL. For the same compound, the concentration at 12 h ([1]; human, plasma, oral, 240 mg, 240 mg day 15, read-out: Plasma concentration, individual patients) was 9080 ng/mL, the concentration at […] ([1]; human, plasma, oral, 240 mg, 240 mg day 15, […], read-out: Plasma concentration, individual patients) was 11200 ng/mL and the half-life ([1]; human, plasma, oral, 40 and 80 mg dose levels) was 5.3 to 7.7 h. The half-life ([1]; human, plasma, oral, 160 and 240 mg dose levels) was 11.2 to 12.8 h, the Tmax ([1]; human, plasma, oral, all doses, single and multiple dose, read-out: Median time to peak drug concentration (tmax)) was 0.5 to 4 h and the Exposure versus dose ([1]; single dosing, 80 to 240 mg) was “increased approximately proportionally”. The “CD8+ T cells in peripheral blood” value ([2]; 160 mg BD intermittent) was “trend toward increased”, the “Classical and intermediate monocytes” value ([2]; 160 mg BD intermittent) was “reduction” and the “Granulocytic MDSCs (gMDSC)” value ([2]; 160 mg BD intermittent) was “increased”. For the same compound, the “Monocytic MDSCs (mMDSCs)” value ([2]; 160 mg BD intermittent) was “reduced”, the “Naive and central memory CD8+ and CD4+ T cells” value ([2]; 160 mg BD intermittent) was “increased” and the “PD-1–positive CD8+ T cells” value ([2]; 160 mg BD intermittent) was “reduction”. The “Tregs in peripheral blood” value ([2]; 160 mg BD intermittent, 8 participants) was “reduction”, the “Memory CD4-TEMRA cells” value ([2]; day 29) was “increased frequencies” and the “NKG2A- and CD69-positive NK cells” value ([2]; normalized after the 2-week break) was “trend toward increased”. The “Inflammatory response genes (GSEA), on-treatment versus baseline tumor samples” value (tumor biopsies) was “enrichment”.
